Reference: patent publication US9527856B2, “Oxindole compounds carrying a CO-bound spiro substituent and use thereof for treating vasopressin-related diseases” (AbbVie Deutschland GmbH & Co. KG, priority 2014, dated 2016)

Target: T1, human vasopressin V1b receptor (Homo sapiens, UniProt P47901)
T1 sequence (P47901 1-424): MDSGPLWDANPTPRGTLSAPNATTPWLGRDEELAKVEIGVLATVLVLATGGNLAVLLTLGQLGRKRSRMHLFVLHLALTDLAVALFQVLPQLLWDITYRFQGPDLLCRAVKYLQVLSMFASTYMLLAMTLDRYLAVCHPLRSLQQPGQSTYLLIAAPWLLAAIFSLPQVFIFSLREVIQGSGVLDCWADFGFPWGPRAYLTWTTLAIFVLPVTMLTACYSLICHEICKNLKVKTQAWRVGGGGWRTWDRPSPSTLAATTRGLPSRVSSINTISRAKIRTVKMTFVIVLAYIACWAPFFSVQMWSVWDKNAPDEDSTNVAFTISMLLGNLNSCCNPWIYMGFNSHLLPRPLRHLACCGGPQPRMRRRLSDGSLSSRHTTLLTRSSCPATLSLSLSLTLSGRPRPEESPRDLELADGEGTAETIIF
Assay: biochemical
Settings: Ki(h-V1b)* [nM], CHO-K1 cell membranes, displacement of 3H-AVP

Q: How did the Ki turn out when `CCOc1ncccc1[C@]1(NC(=O)N2CC3(C2)CN(C2COC2)C3)C(=O)N(S(=O)(=O)c2ccc(F)cc2)c2ccc(C#N)cc21` [Example 31, N-[(3S)-5-Cyano-3-(2-ethoxy-3-pyridyl)-1-(4-fluorophenyl)sulfonyl-2-oxo-indolin-3-yl]-2-(oxetan-3-yl)-2,6-diazaspiro[3.3]heptane-6-carboxamide] was run?
A: 10 to 100 nM

Q: `CCOc1ncccc1[C@]1(NC(=O)C2CC3(CNC3)C2)C(=O)N(S(=O)(=O)c2ccc(OC)cc2)c2ccc(C#N)cc21` [Example 44, N-[(3S)-5-Cyano-3-(2-ethoxy-3-pyridyl)-1-(4-methoxyphenyl)sulfonyl-2-oxo-indolin-3-yl]-6-azaspiro[3.3]heptane-2-carboxamide] was tested. Which Ki did it give?
A: 10 to 100 nM

Q: With `CCOc1ncccc1C1(NC(=O)C2CCC3(CC2)CCN(C2CCNCC2)CC3)C(=O)N(S(=O)(=O)c2ccc(OC)cc2OC)c2ccc(C#N)cc21` (stereo not shown) [Example 47, N-(5-Cyano-1-(2,4-dimethoxyphenylsulfonyl)-3-(2-ethoxypyridin-3-yl)-2-oxoindolin-3-yl)-3-(piperidin-4-yl)-3-azaspiro[5.5]undecane-9-carboxamide 2,2,2-trifluoroacetate] as the molecule, how does the Ki read?
A: 1 to 10 nM

Q: `CCOc1ncccc1C1(NC(=O)C2CC3(C2)CC(N2CC4(CNC4)C2)C3)C(=O)N(S(=O)(=O)c2ccc(OC)cc2OC)c2ccc(C#N)cc21` (stereo not shown) [Example 48, N-(5-Cyano-1-(2,4-dimethoxyphenylsulfonyl)-3-(2-ethoxypyridin-3-yl)-2-oxoindolin-3-yl)-6-(2,6-diazaspiro[3.3]heptan-2-yl)spiro[3.3]heptane-2-carboxamide 2,2,2-trifluoroacetate] was tested. Which Ki did it give?
A: 1 to 10 nM

Q: How did the Ki turn out when `CCOc1ncccc1C1(NC(=O)N2CCC3(CC2)CN(C2CCNCC2)C3)C(=O)N(S(=O)(=O)c2ccc(OC)cc2OC)c2ccc(C#N)cc21` (stereo not shown) [Example 50, N-(5-Cyano-1-(2,4-dimethoxyphenylsulfonyl)-3-(2-ethoxypyridin-3-yl)-2-oxoindolin-3-yl)-2-(piperidin-4-yl)-2,7-diazaspiro[3.5]nonane-7-carboxamide bis-2,2,2-trifluoroacetate] was run?
A: 10 to 100 nM

Q: `CCOc1ncccc1C1(NC(=O)N2CCC3(CC2)CNC3)C(=O)N(S(=O)(=O)c2ccc(OC)cc2OC)c2ccc(C#N)cc21` (stereo not shown) [Example 51, N-(5-Cyano-1-(2,4-dimethoxyphenylsulfonyl)-3-(2-ethoxypyridin-3-yl)-2-oxoindolin-3-yl)-2,7-diazaspiro[3.5]nonane-7-carboxamide 2,2,2-trifluoroacetate] was tested. Which Ki did it give?
A: 10 to 100 nM

Q: How did the Ki turn out when `CCOc1ncccc1C1(NC(=O)C2CCC3(CCNCC3)CC2)C(=O)N(S(=O)(=O)c2ccc(OC)cc2OC)c2ccc(C#N)cc21` (stereo not shown) [Example 52, N-(5-Cyano-1-(2,4-dimethoxyphenylsulfonyl)-3-(2-ethoxypyridin-3-yl)-2-oxoindolin-3-yl)-3-azaspiro[5.5]undecane-9-carboxamide 2,2,2-trifluoroacetate] was run?
A: 1 to 10 nM

Q: `CCOc1ncccc1C1(NC(=O)N2CCC3(CCN(C)CC3)CC2)C(=O)N(S(=O)(=O)c2ccc(OC)cc2OC)c2ccc(C#N)cc21` (stereo not shown) [Example 53, N-(5-Cyano-1-(2,4-dimethoxyphenylsulfonyl)-3-(2-ethoxypyridin-3-yl)-2-oxoindolin-3-yl)-9-methyl-3,9-diazaspiro[5.5]undecane-3-carboxamide 2,2,2-trifluoroacetate] was tested. Which Ki did it give?
A: 10 to 100 nM

Q: `CCOc1ncccc1C1(NC(=O)C2CC3(C2)CC(N2CCN(CC)CC2)C3)C(=O)N(S(=O)(=O)c2ccc(OC)cc2OC)c2ccc(C#N)cc21` (stereo not shown) [Example 54, N-(5-Cyano-1-(2,4-dimethoxyphenylsulfonyl)-3-(2-ethoxypyridin-3-yl)-2-oxoindolin-3-yl)-6-(4-ethylpiperazin-1-yl)spiro[3.3]heptane-2-carboxamide 2,2,2-trifluoroacetate] was tested. Which Ki did it give?
A: < 1 nM

Q: How did the Ki turn out when `CCOc1ncccc1C1(NC(=O)N2CC3(CCN(C)CC3)C2)C(=O)N(S(=O)(=O)c2ccc(OC)cc2OC)c2ccc(C#N)cc21` (stereo not shown) [Example 55, N-(5-Cyano-1-(2,4-dimethoxyphenylsulfonyl)-3-(2-ethoxypyridin-3-yl)-2-oxoindolin-3-yl)-7-methyl-2,7-diazaspiro[3.5]nonane-2-carboxamide 2,2,2-trifluoroacetate] was run?
A: 10 to 100 nM
